Measurements: US10561681B2, “Antimetastatic 2H-selenopheno[3,2-h]chromenes, synthesis thereof, and methods of using same agents” (Latvian Institute of Organic Synthesis, priority 2016, dated 2020)

System: Lewis lung carcinoma (LLC)
Assay: Mouse non-metastatic cancer model, Lewis lung carcinoma s.c. in BALB/c mice
Type: in vivo
Settings: s.c. Day 1, 2, 3, 4, 7, 8, 9, 10, 11; dose 20 mg/kg, total dose 180 mg/kg
Procedure: Six-week-old female ICR and BALB/c mice were purchased from the University of Tartu Laboratory Animal Centre (Estonia). The mice were housed five to a cage, and under standard conditions (21-23° C., 12 h light: dark cycle), fed ad libitum (R3 diet, Lactamin AB, Kimstad, Sweden) and observed daily. The experimental procedures involving experimental animals were carried out in accordance with the guidelines of the European Community, local laws and policies, and were approved by the Latvian Animal Protection Ethical Committee, the Food and Veterinary Service, Riga, Latvia.
In vivo studies were performed utilizing the mouse sarcoma CCRF-S180 II (CCL-8) and Lewis lung carcinoma (LLC) cell line. All cell lines were purchased from ATCC. The cells were grown in Dulbecco's modified Eagle's medium (Sigma) supplemented with 10% fetal calf serum (Sigma).
ICR mice were subcutaneously inoculated in the back with 5×10^6 CCL-8 cells and BALB/c mice were inoculated with 1×10^6 LLC (Lewis Lung Carcinoma) cells, which were suspended in 0.1 mL of PBS on day zero of the study. The compounds dissolved in DMSO and then in 0.1 mL water (DMSO final concentration 1%) were injected s.c. Mice in the untreated group were similarly given doses of 0.1 mL of water with DMSO. Tumor volume (tumor volume V=[…], a is maximal and b the minimal tumor diameter) was recorded twice per week. […]

**Q.** For `COC(=O)c1cc2ccc3c(Br)c(CN4CCN(C)CC4)[se]c3c2oc1=O` [Compound I-10, Methyl 7-bromo-8-((4-methylpiperazin-1-yl)methyl)-2-oxo-2H-selenopheno[3,2-h]chromene-3-carboxylate], which “Anticancer activity in vivo (inhibition, %), Lewis Lung Carcinoma primary tumor growth” value is on record?
**A.** Its value is 34%.
